Data set [1] concerns AT-3 OVA breast cancer cells. In words: Syngeneic AT-3 OVA breast cancer tumour growth in mice treated with PTP1B inhibitor. The data set is classed as in vivo. As to conditions: for Tumor growth: AT-3 OVA cells in mammary fat pads, Ptpn1fl/fl and Lck-Cre;Ptpn1fl/fl female mice, 10 mg/kg i.p. every three days from day 17, vs untreated Ptpn1fl/fl, p<0.0001, 2-way ANOVA. On the procedure:
(§1) FIG. 20. PTP1B-specific inhibitor MSI-1436 (Trodusquemine) repressed tumor growth. 1×10^6 AT-3 OVA breast cancer cells suspended in 20 μl 1×DPBS were transplanted into mammary fat pads of T cell-specific PTP1B-deficient (Lck-Cre; Ptpn1^fl/fl; n=16) and PTP1B wild-type (Ptpn1^fl/fl; n=16) female mice. 17 days after the tumor cell transplantation, MSI-1436 was applied to recipient mice through intraperitoneal injection in 100 μl 0.9% (v/v) saline with the concentration of 10 mg per kilogram body weight. 8 out 16 mice from both Ptpn1^fl/fl and Lck-Cre; Ptpn1^fl/fl recipients were treated every three days with MSI-1436 before the start of the dark cycle. […] This was accompanied by a reduction in food intake and adiposity but no changes in lean mass (data not shown). Representative results (means±SEM) for the indicated numbers of mice and experiments are shown. Significances were determined using 2-tailed Mann-Whitney U Test.
Breast cancer cells were transplanted into mammary fat pads of mice that were “globally” ptp1b-deficient (Ptpn1^−/−) or T-cell specific ptp1b-deficient (Lck-Cre; Ptpn1^fl/fl). Tumour growth was monitored for 28 days after transplantation. […] (FIG. 18A). […] (FIG. 19A).

Data set [2] in a line: Body weight, food intake and body composition of tumour-bearing mice treated with PTP1B inhibitor. The data set is classed as in vivo. As for the experimental part:
as §1

Structures are written as SMILES.

In the case of `CC(C)[C@@H](CC[C@@H](C)[C@H]1CC[C@H]2[C@@H]3[C@H](O)C[C@H]4C[C@@H](NCCCNCCCCNCCCN)CC[C@]4(C)[C@H]3CC[C@]12C)OS(=O)(=O)O` [MSI-1436, Trodusquemine], the Tumor growth entry in data set [1] (10 mg/kg) is listed as “significantly suppressed”. In addition, in data set [1] (listed as MSI1436, 10 mg/kg), the Tumor growth result was “repressed the growth”. For the same compound, the “Tumour burden in mice lacking PTP1B in T cells” value in data set [1] (Lck-Cre;Ptpn1fl/fl mice, treatment once every 3 days) was “did not lead to further reductions in tumour burden”. Also, in data set [1] (MSI-1436-treated Ptpn1fl/fl mice vs non-treated counterparts, 10 mg/kg i.p. every three days, p<0.0001), the Tumor burden result is given as “significant reduction of tumor burden”. For the same compound, the Body weight result in data set [2] (Lck-Cre;Ptpn1fl/fl or Ptpn1fl/fl mice, 10 mg/kg i.p. every three days, p<0.0001) is reported as “significant weight loss”. Also, in data set [2] (treated mice, data not shown), the Adiposity result is “reduction”, the Food intake result is “reduction” and the Lean mass entry was “no changes”.

The values above are taken from US20210207095A1, “METHODS OF ACTIVATING CELLS VIA PTP 1B INHIBITION” (Monash University, priority 2018, published 2021).
